Experimental data published in patent US12109176B1, “Effect of glycerol on biofilm forming bacteria and fungi that changes the microbes sensitivity to pro and anti-biofilm non-toxic, non-bonded plasma amino acids and amino acid derivatives” (priority 2023, dated 2024).
Entries after “also recorded” stand apart in the source; their conditions may differ. Each block holds one compound with its values, some of them ahead of it.

How the values were obtained:
[1] = tested on: bacterial and fungal biofilm; test: In vitro testing on bacterial and fungal biofilm (assay not told apart); assay type: cell-based; settings: for effect on bacterial and fungal biofilm (in words): in vitro testing
Procedure: (§1) Two types of biofilm assays were performed: an inhibition assay and a disruption assay. The inhibition assay assesses the compound's ability to prevent biofilm development, while the disruption assay assesses the compound's ability to break up an existing mature biofilm.
(§2) All bacterial biofilm solutions were prepared in Tryptic Soy Broth (TSB), supplemented with 1% glucose (henceforth referred to as TSB-G). All subsequent procedures were performed in a manner that maintained sterility. A solution of each amino acid or an amino acid derivative to be tested was prepared in weight to volume concentrations ranging from 0.1-5.0%. Amino acids and amino acid derivatives were also tested in combinations. Compound solutions were homogenized with gentle agitation in the dark (4° C., 24 hours) before use.
(§3) 32 Amino acids and 2 amino acid derivatives of the amino acid serine that occur freely in human blood were tested. […] 31 of the 32 amino acids that were tested were the L-Isomers. Glycine has no stereoisomers. The 2 amino acid derivatives, ethanolamine and phosphoethanolamine were also tested. All biofilm assays were performed using 384-well non-tissue culture-treated polystyrene plates. The fungal species tested are as follows: Candida albicans, Candida guilliermondii, Candida parapsilosis, Candida glabrata, Candida tropicalis and Candida dubliniensis. The bacterial species tested are as follows: Staphylococci (standard wild type and methicillin-resistant strain USA300), Escherichia coli, Pseudomonas aeruginosa and Staphylococcus epidermidis.
(§4) Fungal strains were streaked on Yeast Peptone Dextrose (YPD) agar plates and incubated at 30° C. for 48 hours. A single colony from each strain to be tested was inoculated into YPD broth and grown for 12 hours at 30° C., shaking at 225 rpm. […] The cells were allowed to adhere to the plate for 90 minutes at 37° C. with shaking (350 rpm). […] The plate was further incubated for 24 hours at 37° C. with shaking (350 rpm). Media was carefully aspirated and the biofilm was measured by optical density at 600 nm. […] The cells were allowed to adhere to the plate for 90 minutes at 37° C. with shaking (350 rpm). […] The plate was further incubated for 24 hours at 37° C. with shaking (350 rpm). […] The plate was further incubated for 24 hours at 37° C. with shaking (350 rpm). Media was carefully aspirated, and the biofilm was measured by optical density at 600 nm.
(§5) Bacterial strains were streaked on Blood Agar plates (5% sheep blood in Tryptic Soy Broth) and incubated at 37° C. for 24 hours. A single colony from each strain to be tested was inoculated in a TSB broth and grown for 12 hours, at 37° C. with shaking (225 rpm). For the bacterial biofilm inhibition assays, 1 μL of saturated overnight cell culture was added to either 80 μL of TSB-G, or TSB-G supplemented with the amino acid compound solution to be tested, in a 384-well plate. The cells were allowed to adhere to the plate for 60 minutes at 37° C. without shaking. The media was carefully aspirated and 80 μL of TSB-G, or TSB-G supplemented with the amino acid compound solution was added to the plate. The plate was further incubated for 24 hours at 37° C. without shaking. Media was carefully aspirated and the biofilm was measured by optical density at 600 nm. Eight or twelve replicates were performed for each tested condition and the reported values are normalized to the control (TSB-G media only). For the bacterial biofilm disruption assays, 80 µL of TSB-G was added to the plate, along with 1 μL of overnight cell culture. The cells were allowed to adhere to the plate for 60 minutes at 37° C. with no shaking. The media was carefully aspirated and 80 μL of TSB-G was added to the plate. The plate was further incubated for 24 hours at 37° C. with no shaking. Media was carefully aspirated from the mature biofilm and 80 μL of TSB-G, or TSB-G supplemented with the amino acid to be tested, was gently added to the plate.

[2] = in vivo
[3] = tested on: fungal biofilm (C. albicans); test: Fungal biofilm inhibition assay; assay type: cell-based, Candida albicans
Procedure: as §1, §2, §3, §4

[4] = tested on: fungal biofilm (C. albicans); test: Fungal biofilm disruption assay; assay type: cell-based, Candida albicans
[5] = tested on: bacterial (S. aureus) biofilm; test: Bacterial biofilm inhibition assay; assay type: cell-based, Staphylococcus aureus
[6] = tested on: bacterial (S. aureus) biofilm; test: Bacterial biofilm disruption assay; assay type: cell-based, Staphylococcus aureus
[7] = tested on: bacterial (S. aureus) biofilm and fungal biofilm (C. albicans); test: Biofilm inhibition assay, bacterial and fungal taken together; assay type: cell-based; settings: for Neutral (square: Inhibition Biofilm Assay): symbol marks the assay
[8] = tested on: bacterial (S. aureus) biofilm and fungal biofilm (C. albicans); test: Biofilm disruption assay, bacterial and fungal taken together; assay type: cell-based
Procedure: as §1, §2, §3, §4, §5

[9] = tested on: bacterial biofilm; test: In vitro testing on bacterial biofilm (inhibition and/or disruption); assay type: cell-based; settings: in vitro testing
[10] = tested on: fungal biofilm; test: In vitro testing on fungal biofilm (inhibition and/or disruption); assay type: cell-based; settings: in vitro testing
Procedure: as §1, §2, §3, §4

[11] = Thermal degradation in hot aqueous solution; assay type: physicochemical; settings: water at about 90 C. to 100 C.
[12] = Table F, in the presence of a sufficient concentration of glycerol
[13] = Table D, bacterial and fungal biofilm

Compound: OCC(O)CO [glycerol]
effect on bacterial and fungal biofilm (in words) [1]: not found to have antibiofilm effect
toxicity of the glycerol infusion [2]: non-toxic to humans

Compound: N[C@@H](CS)C(=O)O [Cysteine, L-cysteine]
Reduce or Inhibit F Biofilm (squares: Inhibition Biofilm Assay) ([3]; Table D, 0.1 to 5.0%): ▪▪ (Two squares [ie. ▪▪] signifies a major effect (greater than about 50%), on the Inhibition Biofilm Assay)
Reduce or Inhibit F Biofilm (squares: Inhibition Biofilm Assay) [3, 12]: ▪▪ (Two squares [ie. ▪▪] signifies a major effect (greater than about 50%), on the Inhibition Biofilm Assay)
Reduce or Inhibit F Biofilm (dots: Disruption Biofilm Assay) ([4]; Table D, 0.1 to 5.0%): ●● (Two dots [ie. ●●] signifies a major effect (greater than about 50%), on the Disruption Biofilm Assay)
Reduce or Inhibit F Biofilm (dots: Disruption Biofilm Assay) [4, 12]: ●● (Two dots [ie. ●●] signifies a major effect (greater than about 50%), on the Disruption Biofilm Assay)
Reduce or Inhibit B Biofilm (squares: Inhibition Biofilm Assay) ([5]; Table D, 0.1 to 5.0%): ▪▪ (Two squares [ie. ▪▪] signifies a major effect (greater than about 50%), on the Inhibition Biofilm Assay)
Reduce or Inhibit B Biofilm (squares: Inhibition Biofilm Assay) [5, 12]: ▪▪ (Two squares [ie. ▪▪] signifies a major effect (greater than about 50%), on the Inhibition Biofilm Assay)
Reduce or Inhibit B Biofilm (dots: Disruption Biofilm Assay) ([6]; Table D, 0.1 to 5.0%): ●● (Two dots [ie. ●●] signifies a major effect (greater than about 50%), on the Disruption Biofilm Assay)
Reduce or Inhibit B Biofilm (dots: Disruption Biofilm Assay) [6, 12]: ●● (Two dots [ie. ●●] signifies a major effect (greater than about 50%), on the Disruption Biofilm Assay)
Reduce Both (squares: Inhibition Biofilm Assay) [7, 13]: ▪▪ (Two squares [ie. ▪▪] signifies a major effect (greater than about 50%), on the Inhibition Biofilm Assay)
Reduce Both (squares: Inhibition Biofilm Assay) [7, 12]: ▪▪ (Two squares [ie. ▪▪] signifies a major effect (greater than about 50%), on the Inhibition Biofilm Assay)
Reduce Both (dots: Disruption Biofilm Assay) [8, 13]: ●● (Two dots [ie. ●●] signifies a major effect (greater than about 50%), on the Disruption Biofilm Assay)
Reduce Both (dots: Disruption Biofilm Assay) [8, 12]: ●● (Two dots [ie. ●●] signifies a major effect (greater than about 50%), on the Disruption Biofilm Assay)
effect on bacterial biofilm (in words) [9]: antibacterial biofilm effect
effect on fungal biofilm (in words) [10]: antifungal biofilm effects
effect on bacterial and fungal biofilm (in words) [1]: potent antibiofilm effect; also recorded: strong antibiofilm effect; also recorded: activity against both bacterial and fungal biofilm
concentration of maximum (ideal) antibiofilm effect ([1]; tested on its own, without glycerol): 0.5%

thermal stability in aqueous solution [11]: too susceptible to thermal degradation
Compound: NC(=O)CC[C@H](N)C(=O)O [Glutamine, L-glutamine]
Neutral (square: Inhibition Biofilm Assay) ([7]; Table D, Neutral = no effect on the biofilm): ▪ (Single square [ie. ▪] signifies little effect on the Inhibition Biofilm Assay (from about 10 to less than 30%))
Neutral (square: Inhibition Biofilm Assay) ([7]; Table E, in the absence of an infusion of glycerol): ▪ (Single square [ie. ▪] signifies little effect on the Inhibition Biofilm Assay (from about 10 to less than 30%))
Neutral (square: Inhibition Biofilm Assay) [7, 12]: ▪ (Single square [ie. ▪] signifies little effect on the Inhibition Biofilm Assay (from about 10 to less than 30%))
